Test results taken from US11477982B2, “2-amino-5-oxyalkyl-pyrimidine derivatives and their use for controlling undesired plant growth” (Bayer CropScience Aktiengesellschaft, priority 2017, dated 2022).

Tests used:
Type in all cases: in vivo
[1] = system: ABUTH: Abutilon theophrasti; assay: Pre-emergence herbicidal effect
In short: (§1)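 Visual damage rating after ~3 weeks in greenhouse, expressed as % activity relative to untreated pots, where 0% equals control and 100% means dead plants. Treatment was pre-emergence: WP or EC formulations applied to covering soil at 600 l/ha water with 0.5% additive.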

[2] = system: ALOMY: Alopecurus myosuroides; assay: Pre-emergence herbicidal effect; conditions: pre-emergence
In short: as §1

[3] = system: AMARE: Amaranthus retroflexus; assay: Pre-emergence herbicidal effect; conditions: pre-emergence
In short: as §1

AVEFA: Avena fatua [4] = assay: Pre-emergence herbicidal effect
In short: as §1

CYPES = assay: Pre-emergence herbicidal effect; conditions: dosage 320 g/ha
In short: as §1

[5] = system: ECHCG: Echinochloa crus-galli; assay: Pre-emergence herbicidal effect; conditions: pre-emergence
In short: as §1

HORMU: Hordeum murinum [6] = assay: Pre-emergence herbicidal effect; conditions: pre-emergence
In short: as §1

LOLRI: Lolium rigidum [7] = assay: Pre-emergence herbicidal effect
In short: as §1

[8] = system: MATIN: Matricaria inodora; assay: Pre-emergence herbicidal effect; conditions: pre-emergence; dosage 320 g/ha
In short: as §1

PHBPU: Ipomoea purpurea [9] = assay: Pre-emergence herbicidal effect
In short: as §1

[10] = system: POLCO: Polygonum convolvulus; assay: Pre-emergence herbicidal effect
In short: as §1

SETVI: Setaria viridis [11] = assay: Pre-emergence herbicidal effect; conditions: pre-emergence
In short: as §1

STEME: Stellaria media [12] = assay: Pre-emergence herbicidal effect; conditions: pre-emergence; dosage 320 g/ha
In short: as §1

VERPE: Veronica persica [13] = assay: Pre-emergence herbicidal effect; conditions: dosage 320 g/ha
In short: as §1

VIOTR: Viola tricolor [14] = assay: Pre-emergence herbicidal effect; conditions: dosage 320 g/ha
In short: as §1

[15] = system: ABUTH: Abutilon theophrasti; assay: Post-emergence herbicidal effect
In short: (§2)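 Visual rating, made about 3 weeks after treatment against untreated plants, runs from 0% (like controls) to 100% (plants dead). WP or EC formulations were applied post-emergence as aqueous spray at 600 l/ha with 0.5% additive. Plants were at the one-leaf stage, 2 to 3 weeks after sowing in sandy loam.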

[16] = system: ALOMY: Alopecurus myosuroides; assay: Post-emergence herbicidal effect
In short: as §2

[17] = system: AMARE: Amaranthus retroflexus; assay: Post-emergence herbicidal effect
In short: as §2

AVEFA: Avena fatua [18] = assay: Post-emergence herbicidal effect; conditions: dosage 320 g/ha
In short: as §2

[19] = system: ECHCG: Echinochloa crus-galli; assay: Post-emergence herbicidal effect
In short: as §2

[20] = system: MATIN: Matricaria inodora; assay: Post-emergence herbicidal effect
In short: as §2

PHBPU: Ipomoea purpurea [21] = assay: Post-emergence herbicidal effect
In short: as §2

[22] = system: POLCO: Polygonum convolvulus; assay: Post-emergence herbicidal effect
In short: as §2

SETVI: Setaria viridis [23] = assay: Post-emergence herbicidal effect
In short: as §2

STEME: Stellaria media [24] = assay: Post-emergence herbicidal effect
In short: as §2

VERPE: Veronica persica [25] = assay: Post-emergence herbicidal effect; conditions: dosage 320 g/ha
In short: as §2

VIOTR: Viola tricolor [26] = assay: Post-emergence herbicidal effect
In short: as §2

LOLRI: Lolium rigidum [27] = assay: Post-emergence herbicidal effect
In short: as §2

HORMU: Hordeum murinum [28] = assay: Post-emergence herbicidal effect
In short: as §2

With `CC(C)(O)c1cnc(N[C@@H]2CCCc3ccccc32)nc1` [Example 1.8, 2-{2-[(1R)-1,2,3,4-Tetrahydronaphthalen-1-ylamino]pyrimidin-5-yl}propan-2-ol] the “Herbicidal action against ABUTH” value ([1]; dosage 320 g/ha) was 100%, the “Herbicidal action against ALOMY” value ([2]; dosage 320 g/ha) was 100% and the “Herbicidal action against AMARE” value ([3]; dosage 320 g/ha) was 100%. The “Herbicidal action against AVEFA” value (AVEFA: Avena fatua [4]; dosage 320 g/ha) was 100%, the “Herbicidal action against CYPES” value (CYPES) was 70% and the “Herbicidal action against ECHCG” value ([5]; dosage 320 g/ha) was 100%. For the same compound, the “Herbicidal action against HORMU” value (HORMU: Hordeum murinum [6]; dosage 320 g/ha) was 100%, the “Herbicidal action against LOLRI” value (LOLRI: Lolium rigidum [7]; dosage 320 g/ha) was 100% and the “Herbicidal action against MATIN” value [8] was 100%. The “Herbicidal action against PHBPU” value (PHBPU: Ipomoea purpurea [9]; dosage 320 g/ha) was 100%, the “Herbicidal action against POLCO” value ([10]; dosage 320 g/ha) was 100% and the “Herbicidal action against SETVI” value (SETVI: Setaria viridis [11]; dosage 320 g/ha) was 100%. The “Herbicidal action against STEME” value (STEME: Stellaria media [12]) was 100%, the “Herbicidal action against VERPE” value (VERPE: Veronica persica [13]) was 100% and the “Herbicidal action against VIOTR” value (VIOTR: Viola tricolor [14]) was 100%. For the same compound, the “Herbicidal action against ABUTH” value ([15]; dosage 320 g/ha) was 90%, the “Herbicidal action against ALOMY” value ([16]; dosage 320 g/ha) was 70% and the “Herbicidal action against AMARE” value ([17]; dosage 320 g/ha) was 100%. For the same compound, the “Herbicidal action against AVEFA” value (AVEFA: Avena fatua [18]) was 100%, the “Herbicidal action against ECHCG” value ([19]; dosage 320 g/ha) was 100% and the “Herbicidal action against MATIN” value ([20]; dosage 320 g/ha) was 100%. The “Herbicidal action against PHBPU” value (PHBPU: Ipomoea purpurea [21]; dosage 320 g/ha) was 80%, the “Herbicidal action against POLCO” value ([22]; dosage 320 g/ha) was 90% and the “Herbicidal action against SETVI” value (SETVI: Setaria viridis [23]; dosage 320 g/ha) was 100%. For the same compound, the “Herbicidal action against STEME” value (STEME: Stellaria media [24]; dosage 320 g/ha) was 100%, the “Herbicidal action against VERPE” value (VERPE: Veronica persica [25]) was 90% and the “Herbicidal action against VIOTR” value (VIOTR: Viola tricolor [26]; dosage 320 g/ha) was 90%.

`Cc1ccc2c(c1)[C@H](Nc1ncc(C(C)(C)O)c(C)n1)[C@@H](C)C2` [Example 1.6] was tested, and the “Herbicidal action against ABUTH” value ([1]; dosage 80 g/ha) was 90%, the “Herbicidal action against ABUTH” value ([1]; dosage 320 g/ha) was 100% and the “Herbicidal action against ALOMY” value ([2]; dosage 80 g/ha) was 100%. The “Herbicidal action against ALOMY” value ([2]; dosage 320 g/ha) was 100%, the “Herbicidal action against AMARE” value ([3]; dosage 80 g/ha) was 100% and the “Herbicidal action against AMARE” value ([3]; dosage 320 g/ha) was 100%. The “Herbicidal action against AVEFA” value (AVEFA: Avena fatua [4]; dosage 80 g/ha) was 80%, the “Herbicidal action against AVEFA” value (AVEFA: Avena fatua [4]; dosage 320 g/ha) was 100% and the “Herbicidal action against ECHCG” value ([5]; dosage 80 g/ha) was 100%. The “Herbicidal action against ECHCG” value ([5]; dosage 320 g/ha) was 100%, the “Herbicidal action against HORMU” value (HORMU: Hordeum murinum [6]; dosage 80 g/ha) was 100% and the “Herbicidal action against HORMU” value (HORMU: Hordeum murinum [6]; dosage 320 g/ha) was 100%. The “Herbicidal action against LOLRI” value (LOLRI: Lolium rigidum [7]; dosage 80 g/ha) was 100%, the “Herbicidal action against LOLRI” value (LOLRI: Lolium rigidum [7]; dosage 320 g/ha) was 100% and the “Herbicidal action against MATIN” value [8] was 100%. For the same compound, the “Herbicidal action against PHBPU” value (PHBPU: Ipomoea purpurea [9]; dosage 80 g/ha) was 80%, the “Herbicidal action against PHBPU” value (PHBPU: Ipomoea purpurea [9]; dosage 320 g/ha) was 100% and the “Herbicidal action against POLCO” value ([10]; dosage 80 g/ha) was 100%. The “Herbicidal action against POLCO” value ([10]; dosage 320 g/ha) was 100%, the “Herbicidal action against SETVI” value (SETVI: Setaria viridis [11]; dosage 80 g/ha) was 100% and the “Herbicidal action against SETVI” value (SETVI: Setaria viridis [11]; dosage 320 g/ha) was 100%. The “Herbicidal action against STEME” value (STEME: Stellaria media [12]) was 100%, the “Herbicidal action against VERPE” value (VERPE: Veronica persica [13]) was 100% and the “Herbicidal action against VIOTR” value (VIOTR: Viola tricolor [14]) was 100%. For the same compound, the “Herbicidal action against ABUTH” value ([15]; dosage 80 g/ha) was 80%, the “Herbicidal action against ABUTH” value ([15]; dosage 320 g/ha) was 90% and the “Herbicidal action against ALOMY” value ([16]; dosage 80 g/ha) was 90%. The “Herbicidal action against ALOMY” value ([16]; dosage 320 g/ha) was 100%, the “Herbicidal action against AMARE” value ([17]; dosage 80 g/ha) was 100% and the “Herbicidal action against AMARE” value ([17]; dosage 320 g/ha) was 100%. The “Herbicidal action against AVEFA” value (AVEFA: Avena fatua [18]) was 100%, the “Herbicidal action against ECHCG” value ([19]; dosage 80 g/ha) was 100% and the “Herbicidal action against ECHCG” value ([19]; dosage 320 g/ha) was 100%. For the same compound, the “Herbicidal action against LOLRI” value (LOLRI: Lolium rigidum [27]; dosage 80 g/ha) was 40%, the “Herbicidal action against LOLRI” value (LOLRI: Lolium rigidum [27]; dosage 320 g/ha) was 100% and the “Herbicidal action against MATIN” value ([20]; dosage 80 g/ha) was 20%. For the same compound, the “Herbicidal action against PHBPU” value (PHBPU: Ipomoea purpurea [21]; dosage 320 g/ha) was 100%, the “Herbicidal action against POLCO” value ([22]; dosage 320 g/ha) was 80% and the “Herbicidal action against SETVI” value (SETVI: Setaria viridis [23]; dosage 80 g/ha) was 90%. For the same compound, the “Herbicidal action against SETVI” value (SETVI: Setaria viridis [23]; dosage 320 g/ha) was 100%, the “Herbicidal action against STEME” value (STEME: Stellaria media [24]; dosage 80 g/ha) was 100% and the “Herbicidal action against STEME” value (STEME: Stellaria media [24]; dosage 320 g/ha) was 100%. The “Herbicidal action against VERPE” value (VERPE: Veronica persica [25]) was 80%, the “Herbicidal action against VIOTR” value (VIOTR: Viola tricolor [26]; dosage 80 g/ha) was 90% and the “Herbicidal action against VIOTR” value (VIOTR: Viola tricolor [26]; dosage 320 g/ha) was 90%.

`Cc1ccc2c(c1)[C@H](Nc1ncc([C@H](C)O)c(N)n1)[C@@H](C)C2` (racemic) [drawing 14, reference compound] was tested, and the “Herbicidal action against ABUTH” value ([15]; dosage 80 g/ha) was 10%, the “Herbicidal action against ABUTH” value ([15]; dosage 320 g/ha) was 60% and the “Herbicidal action against ALOMY” value ([16]; dosage 80 g/ha) was 0%. The “Herbicidal action against ALOMY” value ([16]; dosage 320 g/ha) was 70%, the “Herbicidal action against ECHCG” value ([19]; dosage 80 g/ha) was 0% and the “Herbicidal action against HORMU” value (HORMU: Hordeum murinum [28]; dosage 80 g/ha) was 0%. For the same compound, the “Herbicidal action against HORMU” value (HORMU: Hordeum murinum [28]; dosage 320 g/ha) was 20%, the “Herbicidal action against LOLRI” value (LOLRI: Lolium rigidum [27]; dosage 80 g/ha) was 30% and the “Herbicidal action against LOLRI” value (LOLRI: Lolium rigidum [27]; dosage 320 g/ha) was 70%. For the same compound, the “Herbicidal action against PHBPU” value (PHBPU: Ipomoea purpurea [21]; dosage 80 g/ha) was 20%, the “Herbicidal action against PHBPU” value (PHBPU: Ipomoea purpurea [21]; dosage 320 g/ha) was 80% and the “Herbicidal action against POLCO” value ([22]; dosage 80 g/ha) was 60%. For the same compound, the “Herbicidal action against POLCO” value ([22]; dosage 320 g/ha) was 60% and the “Herbicidal action against SETVI” value (SETVI: Setaria viridis [23]; dosage 80 g/ha) was 60%.
